Assay results taken from ChEMBL document CHEMBL1811861 (Bioorg Med Chem, 2011).

Legend:
[1] = system: Human alphaherpesvirus 3; assay: microbe, parasite or virus in culture; details: Human alphaherpesvirus 3, 07/1, HEL
[2] = system: HEL; details: human, 72 h
[3] = system: Influenza A virus; assay: microbe, parasite or virus in culture; details: H3N2, MDCK
[4] = system: Human alphaherpesvirus 3; assay: microbe, parasite or virus in culture; details: Human alphaherpesvirus 3, strain Oka vaccine, HEL
[5] = system: Vaccinia virus; assay: microbe, parasite or virus in culture; details: Orthopoxvirus vaccinia, HEL
[6] = system: Human betaherpesvirus 5; assay: microbe, parasite or virus in culture; details: Human betaherpesvirus 5, AD169, HEL
[7] = system: Human alphaherpesvirus 1; assay: microbe, parasite or virus in culture; details: Human alphaherpesvirus 1, KOS, HEL
[8] = system: Felid alphaherpesvirus 1; assay: microbe, parasite or virus in culture; details: Felid alphaherpesvirus 1, CRFK
[9] = system: Human alphaherpesvirus 2; assay: microbe, parasite or virus in culture; details: Human alphaherpesvirus 2, strain G, HEL
[10] = system: Human betaherpesvirus 5; assay: microbe, parasite or virus in culture; details: Human betaherpesvirus 5, AD169, HFF
[11] = system: Human respirovirus 3; assay: microbe, parasite or virus in culture; details: Human respirovirus 3, Vero
[12] = system: Mammalian orthoreovirus 1; assay: microbe, parasite or virus in culture; details: Mammalian orthoreovirus 1, Vero
[13] = system: Feline coronavirus; assay: microbe, parasite or virus in culture; details: Alphacoronavirus 1, CRFK
[14] = system: Vesicular stomatitis virus; assay: microbe, parasite or virus in culture; details: HEL
[15] = system: Punta Toro virus; assay: microbe, parasite or virus in culture; details: Vero
[16] = system: Human immunodeficiency virus 1; assay: microbe, parasite or virus in culture; details: Human immunodeficiency virus 1, 3B, CCRF-CEM, 96 h
[17] = system: Sindbis virus; assay: microbe, parasite or virus in culture; details: Vero
[18] = system: CCRF-CEM; details: human, 72 h
[19] = system: Human immunodeficiency virus 2; assay: microbe, parasite or virus in culture; details: Human immunodeficiency virus 2, ISOLATE ROD, CCRF-CEM, 96 h
[20] = system: Influenza A virus; assay: microbe, parasite or virus in culture; details: H1N1, MDCK
[21] = system: Coxsackievirus B4; assay: microbe, parasite or virus in culture; details: Enterovirus B, HeLa
[22] = system: HeLa; details: human, 72 h
[23] = system: Influenza B virus; assay: microbe, parasite or virus in culture; details: MDCK
[24] = system: Human betaherpesvirus 5; assay: microbe, parasite or virus in culture; details: Human betaherpesvirus 5, Davis, HEL
[25] = system: Vesicular stomatitis virus; assay: microbe, parasite or virus in culture; details: HeLa
[26] = system: Coxsackievirus B4; assay: microbe, parasite or virus in culture; details: Enterovirus B, Vero
[27] = system: Human alphaherpesvirus 1; assay: microbe, parasite or virus in culture; details: Human alphaherpesvirus 1, KOS, HEL; remark: listed apart in the source
[28] = cat, crfk, 72 h
[29] = system: Respiratory syncytial virus; assay: microbe, parasite or virus in culture; details: human respiratory syncytial virus, HeLa
[30] = system: Human immunodeficiency virus 1; assay: microbe, parasite or virus in culture; details: Human immunodeficiency virus 1, LAI, MT2
[31] = in vitro; details: human, HeLa cells

With Nc1nc2c(ncn2COCCO)c(=O)[nH]1 [ACYCLOVIR] as the compound, how does the EC50 [1] read?
Its EC50 is 69.3 µM.

What about the CC50 [2] of the same compound?
The CC50 was no less than 1420 µM.

Which EC50 [1] does the source give for Nc1ncnc2c1ncn2CCOCP(=O)(OCCCCCCCCC(O)CO)OCCCCCCCCC(O)CO (centres undefined) here?
Its EC50 is 60.7 µM.

What about the EC50 [3] of the same compound?
Its EC50 is greater than 324 µM.

And the EC50 [4]?
Its EC50 is 99 µM.

What does the source list for Nc1ncnc2c1ncn2CCOCP(=O)(O)OCCCCCCCCCCO?
EC50 [1]: 64.3 µM; EC50 [4]: 114 µM

What does the source list for CCOCCOCCOCCOCCOCCOCCOP(=O)(O)CO[C@H](CO)Cn1ccc(N)nc1=O?
EC50 [5]: 15.7 µM; EC50 [6]: 0.95 µM; EC50 [7]: 3.5 µM; EC50 [8]: 2.8 µM; EC50 [9]: 1.4 µM

For O=c1[nH]c(=O)n([C@H]2C[C@H](O)[C@@H](CO)O2)cc1/C=C/Br [BRIVUDINE], which EC50 [7] is on record?
The EC50 was 274 µM.

And the EC50 [1]?
Its EC50 is no less than 105 µM.

And the EC50 [4]?
The EC50 was 0.013 µM.

What about the CC50 [2] of the same compound?
Its CC50 is 470 µM.

What about the EC50 [9] of the same compound?
The EC50 was 45.7 µM.

Which EC50 [10] does the source give for CCCCCCCCCCCCCCCCOCCCOP(=O)(O)CO[C@H](CO)Cn1ccc(N)nc1=O [BRINCIDOFOVIR] here?
The EC50 was 0.0009 µM.

Which EC50 [11] does the source give for Nc1ncnc2c1ncn2CCOCP(=O)(OCCOCCCCCCCCCCO)OCCOCCCCCCCCCCO here?
The EC50 was greater than 29.7 µM.

What about the EC50 [5] of the same compound?
The EC50 was greater than 29.7 µM.

And the EC50 [6]?
Its EC50 is greater than 29.7 µM.

And the EC50 [7]?
The EC50 was greater than 29.7 µM.

What about the EC50 [12] of the same compound?
Its EC50 is greater than 29.7 µM.

What about the EC50 [1] of the same compound?
Its EC50 is greater than 29.7 µM.

What about the EC50 [13] of the same compound?
The EC50 was greater than 29.7 µM.

And the EC50 [14]?
The EC50 was greater than 29.7 µM.

And the EC50 [15]?
Its EC50 is greater than 29.7 µM.

And the EC50 [16]?
The EC50 was greater than 29.7 µM.

What about the EC50 [17] of the same compound?
Its EC50 is greater than 29.7 µM.

What about the EC50 [8] of the same compound?
The EC50 was greater than 29.7 µM.

What about the CC50 [18] of the same compound?
The CC50 was 13.5 µM.

And the EC50 [19]?
The EC50 was greater than 29.7 µM.

And the EC50 [20]?
Its EC50 is greater than 5.9 µM.

What about the EC50 [3] of the same compound?
The EC50 was greater than 5.9 µM.

What about the EC50 [21] of the same compound?
Its EC50 is greater than 29.7 µM.

And the CC50 [22]?
Its CC50 is 148 µM.

And the EC50 [4]?
Its EC50 is greater than 29.7 µM.

And the CC50 [2]?
The CC50 was 62.5 µM.

And the EC50 [23]?
The EC50 was greater than 5.9 µM.

What about the EC50 [9] of the same compound?
Its EC50 is greater than 29.7 µM.

What about the EC50 [24] of the same compound?
The EC50 was greater than 29.7 µM.

And the EC50 [25]?
The EC50 was greater than 29.7 µM.

What about the EC50 [26] of the same compound?
The EC50 was greater than 29.7 µM.

What about the EC50 [27] of the same compound?
The EC50 was greater than 29.7 µM.

And the CC50 [28]?
The CC50 was greater than 148 µM.

And the EC50 [29]?
The EC50 was greater than 29.7 µM.

Which results are given for Nc1ncnc2c1ncn2CCOCP(=O)(O)OCCOCCCCCCCCC(O)CO (centres undefined)?
EC50 [1]: ≥ 72.7 µM; EC50 [4]: 61.4 µM

Which EC50 [7] does the source give for Nc1ncnc2c1ncn2CCOCP(=O)(O)OCCOCCCCCCCCCCO here?
Its EC50 is 122 µM.

What about the EC50 [1] of the same compound?
Its EC50 is 18.4 µM.

What about the EC50 [16] of the same compound?
The EC50 was 106 µM.

And the EC50 [19]?
Its EC50 is 95 µM.

And the EC50 [20]?
Its EC50 is greater than 42 µM.

And the EC50 [3]?
Its EC50 is greater than 42 µM.

And the EC50 [4]?
Its EC50 is 26 µM.

What about the EC50 [23] of the same compound?
The EC50 was greater than 42 µM.

And the EC50 [9]?
The EC50 was 122 µM.

For Nc1ncnc2c1ncn2CCOCP(=O)(O)OCCOCCOCCOCCOCCOCCO, which EC50 [1] is on record?
Its EC50 is 40.9 µM.

Which EC50 [11] does the source give for Nc1ncnc2c1ncn2CCOCP(=O)(OCCCCCCCCCCO)OCCCCCCCCCCO here?
The EC50 was greater than 34 µM.

And the EC50 [6]?
Its EC50 is greater than 34 µM.

And the EC50 [12]?
The EC50 was greater than 34 µM.

What about the EC50 [1] of the same compound?
Its EC50 is greater than 34 µM.

And the EC50 [15]?
Its EC50 is greater than 34 µM.

What about the EC50 [17] of the same compound?
The EC50 was greater than 34 µM.

And the EC50 [4]?
Its EC50 is greater than 34 µM.

And the EC50 [24]?
The EC50 was greater than 34 µM.

What about the EC50 [26] of the same compound?
Its EC50 is greater than 34 µM.

What about the EC50 [29] of the same compound?
The EC50 was 99 µM.

For Nc1nc(O)c2ncn(COC(CO)CO)c2n1 [GANCICLOVIR], which EC50 [5] is on record?
The EC50 was greater than 250 µM.

And the EC50 [8]?
Its EC50 is 8.1 µM.

What about the CC50 [2] of the same compound?
Its CC50 is 435 µM.

What about the EC50 [9] of the same compound?
Its EC50 is 0.027 µM.

And the CC50 [28]?
Its CC50 is greater than 394 µM.

What does the source list for Nc1ccn(C[C@@H](CO)OCP(=O)(O)OCCOCCOCCOCCOCCOCCO)c(=O)n1?
EC50 [5]: 107 µM; EC50 [6]: 0.8 µM; EC50 [7]: 12.9 µM; EC50 [1]: 0.6 µM; EC50 [8]: 14.5 µM; EC50 [4]: 1.91 µM; EC50 [9]: 7.4 µM; EC50 [24]: 0.7 µM; EC50 [27]: 16.5 µM

What does the source list for Cc1oc(=O)oc1COP(=O)(O)COCCn1cnc2c(N)ncnc21?
EC50 [7]: 51.9 µM; EC50 [1]: 7.6 µM; EC50 [16]: 10.6 µM; CC50 [18]: 88 µM; EC50 [19]: 9.3 µM; EC50 [4]: 1.92 µM; CC50 [2]: 117 µM; EC50 [9]: 98.6 µM; EC50 [27]: 51.9 µM

For CCCCCCCCCCCCCCCCOCCCOP(=O)(O)COCCn1cnc2c(N)ncnc21, which EC50 [30] is on record?
The EC50 was 0.015 nM.

Which EC50 [1] does the source give for CCOCCOCCOCCOCCOCCOCCOP(=O)(O)COCCn1cnc2c(N)ncnc21 here?
The EC50 was 69 µM.

And the EC50 [4]?
Its EC50 is 74.3 µM.

And the CC50 [2]?
The CC50 was 146 µM.

Which results are given for Nc1ncnc2c1ncn2CCOCP(=O)(O)O [ADEFOVIR]?
EC50 [6]: 118 µM; EC50 [7]: 41.4 µM; EC50 [1]: 5 µM; EC50 [16]: 10.4 µM; CC50 [18]: 164 µM; EC50 [19]: 8.6 µM; CC50 [22]: > 250 µM; EC50 [4]: 6.7 µM; EC50 [9]: 24.9 µM; EC50 [24]: 115 µM; EC50 [30]: 1100 nM; EC50 [27]: 42.5 µM

For Nc1ncnc2c1ncn2CCOCP(=O)(OCCOCCCCCCCCC(O)CO)OCCOCCCCCCCCC(O)CO (centres undefined), which EC50 [6] is on record?
The EC50 was greater than 28.3 µM.

Which EC50 [20] does the source give for CCOC(=O)C1=C[C@@H](OC(CC)CC)[C@H](NC(C)=O)[C@@H](N)C1 [OSELTAMIVIR] here?
Its EC50 is 12 µM.

What about the EC50 [23] of the same compound?
Its EC50 is 23.5 µM.

For CCCCCCCCCCCCCCOCCCOP(=O)(O)CO[C@H](CO)Cn1ccc(N)nc1=O, which EC50 [10] is on record?
Its EC50 is 0.002 µM.

With Nc1ncnc2c1ncn2CCOCP(=O)(O)OCCCCCCCCC(O)CO (centres undefined) as the compound, how does the EC50 [13] read?
The EC50 was greater than 9 µM.

What about the EC50 [8] of the same compound?
The EC50 was greater than 9 µM.

What about the CC50 [28] of the same compound?
Its CC50 is 9.4 µM.

With NC(=O)c1ncn([C@@H]2O[C@H](CO)[C@@H](O)[C@H]2O)n1 [RIBAVIRIN] as the compound, how does the EC50 [12] read?
Its EC50 is no less than 174 µM.

What about the EC50 [17] of the same compound?
Its EC50 is greater than 250 µM.

And the EC50 [20]?
The EC50 was 9.8 µM.

And the CC50 at 72 h [31]?
Its CC50 at 72 h is greater than 250 µM.

And the EC50 [26]?
The EC50 was greater than 250 µM.

What about the EC50 [29] of the same compound?
The EC50 was 3 µM.

With Nc1ccn(C[C@@H](CO)OCP(=O)(O)O)c(=O)n1 [CIDOFOVIR] as the compound, how does the EC50 [5] read?
The EC50 was 7 µM.

And the EC50 [6]?
The EC50 was 0.92 µM.

What about the EC50 [1] of the same compound?
Its EC50 is 0.1 µM.

And the EC50 [4]?
The EC50 was 0.29 µM.

And the CC50 [2]?
Its CC50 is 234 µM.

What about the EC50 [10] of the same compound?
Its EC50 is 1.2 µM.

And the EC50 [9]?
The EC50 was 1.43 µM.

And the EC50 [24]?
Its EC50 is 0.94 µM.

What about the EC50 [27] of the same compound?
Its EC50 is 1.6 µM.
